Measured values: patent publication US20070117743A1, “New antitumoral compounds” (priority 2003, published 2007)
Where two headings read alike, the source gives them in different places. Where a SMILES comes first, the peptide text is derived from it. Bridges are numbered along the chain shown (N, C = ends). [ ]: non-standard residue; d: D form. The star is where a group is joined. d(aIle) = CC[C@H](C)[C@@H](N)C(=O)O; d(aThr) = C[C@@H](O)[C@@H](N)C(=O)O; hCha = N[C@@H](CCC1CCCCC1)C(=O)O; Hexanoyl(5-Me) = CC(C)CCCC(=O)*; dCha = N[C@H](CC1CCCCC1)C(=O)O; Orn = NCCC[C@H](N)C(=O)O; Dhb = C/C=C(\N)C(=O)O

Tests used:
Assay type in all cases: cell-based, human
IGROV-1 = test: SRB colorimetric assay of cell growth and viability, IGROV-1; details: 48 hours exposure
DU-145 = test: SRB colorimetric assay of cell growth and viability, DU-145; details: 48 hours exposure
IGROV-ET = test: SRB colorimetric assay of cell growth and viability, IGROV-ET; details: 48 hours exposure; for CC50: read-out: LC50 IGROV-ET
HeLa-APL = test: SRB colorimetric assay of cell growth and viability, HeLa-APL; details: 48 hours exposure; for CC50: read-out: LC50 HELA-APL
LoVo-Dox = test: SRB colorimetric assay of cell growth and viability, LoVo-Dox; details: 48 hours exposure; for CC50: read-out: LC50 LOVO-DOX
Procedure, shortened: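 After 48 hours continuous exposure to samples spanning 10 to 10^−8 μg/mL, biomass was quantified by sulforhodamine B staining of TCA-fixed cells (OD 490 nm). Cells, 5×10^3 per well in RPMI 1640 10% FBS, had attached 18 hours first; GI, TGI and LC derived from triplicate wells.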

LNCaP = test: SRB colorimetric assay of cell growth and viability, LNCaP; details: 48 hours exposure; for GI50: read-out: GI50 LN-caP; for CC50: read-out: LC50 LN-caP
HT-29 = test: SRB colorimetric assay of cell growth and viability, HT-29; details: 48 hours exposure; for GI50: read-out: GI50 HT-29; for CC50: read-out: LC50 HT-29
LoVo = test: SRB colorimetric assay of cell growth and viability, LoVo; details: 48 hours exposure; for CC50: read-out: LC50 LOVO
SK-BR-3 = test: SRB colorimetric assay of cell growth and viability, SK-BR-3; details: 48 hours exposure
A-549 = test: SRB colorimetric assay of cell growth and viability, A-549; details: 48 hours exposure; for GI50: read-out: GI50 A-549; for CC50: read-out: LC50 A-549
SK-MEL-28 = test: SRB colorimetric assay of cell growth and viability, SK-MEL-28; details: 48 hours exposure; for CC50: read-out: LC50 MEL-28
K-562 = test: SRB colorimetric assay of cell growth and viability, K-562; details: 48 hours exposure
HeLa = test: SRB colorimetric assay of cell growth and viability, HeLa; details: 48 hours exposure; for CC50: read-out: LC50 HELA
PANC-1 = test: SRB colorimetric assay of cell growth and viability, PANC-1; details: 48 hours exposure, SRB

SMILES: C/C=C1\NC(=O)[C@H](Cc2ccccc2)NC(=O)[C@@H](C(C)C)NC(=O)[C@@H]([C@@H](C)CC)NC(=O)[C@H](NC(=O)[C@H](NC(=O)[C@H](CCCN)NC(=O)[C@H]2CCCN2C(=O)[C@H](NC(=O)[C@H](CCC2CCCCC2)NC(=O)[C@@H](NC(=O)[C@@H](CC2CCCCC2)NC(=O)CCCC(C)C)[C@@H](C)O)C(C)C)[C@@H](C)CC)[C@@H](C)OC(=O)[C@H](C(C)C)NC1=O [Compound 10, [hCh^11, D-Cha^13]-KF] ({Hexanoyl(5-Me)}-[dCha]T[hCha][dV][dP][Orn][d(aIle)][d(aThr)][d(aIle)][dV]F[Dhb]V; ester 8-C)
- GI50 (IGROV-1): 1990 nM
- LC50 (concentration causing 50% net cell killing) (IGROV-1): 6250 nM
- TGI IGROV (IGROV-1): 3.84E−06 Molar
- GI50 (DU-145): 4290 nM
- LC50 (concentration causing 50% net cell kill) (DU-145): 6250 nM
- TGI DU-145 (DU-145): 6.25E−06 Molar
- GI50 (IGROV-ET): 2230 nM
- TGI IGROV-ET (IGROV-ET): 4.56E−06 Molar
- CC50 (IGROV-ET): 6250 nM
- GI50 (HeLa-APL): 3670 nM
- TGI HELA-APL (HeLa-APL): 6.25E−06 Molar
- CC50 (HeLa-APL): 6250 nM
- GI50 (LoVo-Dox): 537 nM
- TGI LOVO-DOX (LoVo-Dox): 1.30E−06 Molar
- CC50 (LoVo-Dox): 2940 nM
- TGI LN-caP (LNCaP): 6.25E−06 Molar
- GI50 (LNCaP): 4890 nM
- CC50 (LNCaP): 6250 nM
- TGI HT-29 (HT-29): 1.96E−06 Molar
- GI50 (HT-29): 1060 nM
- CC50 (HT-29): 3580 nM
- GI50 (LoVo): 1120 nM
- TGI LOVO (LoVo): 2.27E−06 Molar
- CC50 (LoVo): 4590 nM
- GI50 (SK-BR-3): 1310 nM
- LC50 (SK-BR-3): 4160 nM
- TGI SK-BR-3 (SK-BR-3): 2.32E−06 Molar
- TGI A-549 (A-549): 6.25E−06 Molar
- GI50 (A-549): 3560 nM
- CC50 (A-549): 6250 nM
- GI50 (SK-MEL-28): 3100 nM
- TGI MEL-28 (SK-MEL-28): 6.25E−06 Molar
- CC50 (SK-MEL-28): 6250 nM
- GI50 (K-562): 6250 nM
- TGI K-562 (K-562): 6.25E−06 Molar
- CC50 (K-562; read-out: LC50 K-562): 6250 nM
- GI50 (HeLa): 2670 nM
- TGI HELA (HeLa): 6.25E−06 Molar
- CC50 (HeLa): 6250 nM

SMILES: C/C=C1\NC(=O)[C@H](Cc2ccc(I)cc2)NC(=O)[C@@H](C(C)C)NC(=O)[C@@H]([C@@H](C)CC)NC(=O)[C@H](NC(=O)[C@H](NC(=O)[C@H](CCCN)NC(=O)[C@H]2CCCN2C(=O)[C@H](NC(=O)[C@@H](NC(=O)[C@@H](NC(=O)[C@H](NC(=O)CC[C@@H](C)CC)C(C)C)[C@@H](C)O)C(C)C)C(C)C)[C@@H](C)CC)[C@@H](C)OC(=O)[C@H](C(C)C)NC1=O [Compound 72, [Phe(4-I)^3, (4S)-MeHex^14]-KF]
- GI50 (IGROV-1; SRB): 170 nM
- LC50 (concentration causing 50% net cell killing) (IGROV-1; SRB): 443 nM
- TGI IGROV (IGROV-1; SRB): 2.74E−07 Molar
- GI50 (DU-145; SRB): 132 nM
- LC50 (concentration causing 50% net cell kill) (DU-145; SRB): 425 nM
- TGI DU-145 (DU-145; SRB): 2.37E−07 Molar
- GI50 (IGROV-ET; SRB): 259 nM
- TGI IGROV-ET (IGROV-ET; SRB): 3.84E−07 Molar
- CC50 (IGROV-ET; SRB): 570 nM
- GI50 (HeLa-APL; SRB): 287 nM
- TGI HELA-APL (HeLa-APL; SRB): 7.73E−07 Molar
- CC50 (HeLa-APL; SRB): 2280 nM
- GI50 (LoVo-Dox; SRB): 49.8 nM
- TGI LOVO-DOX (LoVo-Dox; SRB): 1.23E−07 Molar
- CC50 (LoVo-Dox; SRB): 274 nM
- TGI LN-caP (LNCaP; SRB): 8.42E−07 Molar
- GI50 (LNCaP; SRB): 270 nM
- CC50 (LNCaP; SRB): 2380 nM
- TGI HT-29 (HT-29; SRB): 2.30E−07 Molar
- GI50 (HT-29; SRB): 120 nM
- CC50 (HT-29; SRB): 441 nM
- GI50 (PANC-1): 885 nM
- TGI PANC-1 (PANC-1): 1.68E−06 Molar
- CC50 (PANC-1; read-out: LC50 PANC-1): 3200 nM
- GI50 (LoVo; SRB): 129 nM
- TGI LOVO (LoVo; SRB): 2.35E−07 Molar
- CC50 (LoVo; SRB): 428 nM
- GI50 (SK-BR-3; SRB): 125 nM
- LC50 (SK-BR-3; SRB): 416 nM
- TGI SK-BR-3 (SK-BR-3; SRB): 2.28E−07 Molar
- TGI A-549 (A-549; SRB): 3.47E−07 Molar
- GI50 (A-549; SRB): 214 nM
- CC50 (A-549; SRB): 559 nM
- GI50 (SK-MEL-28; SRB): 190 nM
- TGI MEL-28 (SK-MEL-28; SRB): 4.05E−07 Molar
- CC50 (SK-MEL-28; SRB): 1200 nM
- GI50 (HeLa; SRB): 133 nM
- TGI HELA (HeLa; SRB): 2.24E−07 Molar
- CC50 (HeLa; SRB): 379 nM
